Common to all, as to type: cell-based
In assay [1] the target is T1, CDK2 (Homo sapiens, UniProt P24941).
T1 construct: host or cells: HEK293
Nature of the assay: CDK2 HIBIT PQ (protein quantification), degradation. The conditions noted are these: for CDK2 HIBIT PQ Max (%): Max = Maximum; for DC50: PQ = Protein Quantification. In a few lines:
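HEK293 cells bearing HiBiT-tagged CDK2 were cultured in DMEM containing 10% FBS, plated in 384-well plates at 1.6×10^5 cells/well in 50 uL, and kept overnight at 37° C and 5% CO2. Following 6 hours of compound exposure, each well received 20 μL of HiBiT reagent (Nano-Glo HiBiT lytic buffer, lytic substrate, LgBiT protein), and plates were shaken for 20 minutes at room temperature and then read on an EnVision, with 0.1% DMSO as the high control and medium only as the low control. DC50 and maximal degradation were calculated from these readings.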

Assay [2] has as its target T2, CDK9 (Homo sapiens, UniProt P50750).
T2 construct: host or cells: HEK293
Nature of the assay: CDK9 HIBIT PQ (protein quantification), degradation. Particulars: for Dmax: Max = Maximum; for DC50: PQ = Protein Quantification. The method, boiled down:
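HEK293 cells carrying HiBiT-tagged CDK9 were grown in DMEM with 10% FBS and seeded in 384-well plates at 1.6×10^5 cells/well in 50 uL, then incubated overnight at 37° C and 5% CO2. After compound treatment, CDK9 protein was measured with a HiBiT assay. High control was 0.1% DMSO-treated cells and low control was culture medium only. Maximal degradation, Dmax and DC50 were derived from these readings.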

Assay [3] concerns the target T3, CCNE1 (Homo sapiens, UniProt P24864+P24941).
T3 construct: host or cells: HEK293
Nature of the assay: CCNE1 HIBIT PQ (protein quantification), degradation. Particulars: for CCNE1 HIBIT PQ Max (%): Max = Maximum; for DC50: PQ = Protein Quantification. The method, boiled down:
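Compound was applied for 6 hours to HEK293 cells expressing HiBiT-tagged CCNE1, which had been seeded overnight in 384-well plates at 1.6×10⁵ cells/well. CCNE1 protein was then read by HiBiT assay against a high control of 0.1% DMSO-treated cells and a low control of medium only. These readings gave DC50 and maximal degradation.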

Where only a bound is given, the exact number is not on record here.

T2 sequence (P50750 whole entry): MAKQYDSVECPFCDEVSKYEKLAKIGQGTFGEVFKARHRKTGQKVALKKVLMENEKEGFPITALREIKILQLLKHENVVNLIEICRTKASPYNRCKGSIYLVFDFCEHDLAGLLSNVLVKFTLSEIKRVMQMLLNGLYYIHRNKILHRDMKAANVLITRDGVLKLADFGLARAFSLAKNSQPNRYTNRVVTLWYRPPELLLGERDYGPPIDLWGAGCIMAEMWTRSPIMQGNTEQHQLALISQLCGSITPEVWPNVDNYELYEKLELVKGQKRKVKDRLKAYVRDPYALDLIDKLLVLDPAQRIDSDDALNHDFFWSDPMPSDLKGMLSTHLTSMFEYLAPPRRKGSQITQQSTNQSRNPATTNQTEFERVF

In the case of `CC(C)Oc1c(-c2cn[nH]c2)ncn2nc(Nc3ccc(S(=O)(=O)c4cccc(CC5CC(c6ccc7c(c6)n(C)c(=O)n7[C@H]6CCC(=O)NC6=O)C5)c4)cc3F)nc12` (mixture of isomers) [Compound 31, (3S)-3-[5-(3-{[3-(3-fluoro-4-{[8-isopropoxy-7-(1H-pyrazol-4-yl)-[1,2,4]triazolo[1,5-c]pyrimidin-2-yl]amino}benzenesulfonyl)phenyl]methyl}cyclobutyl)-3-methyl-2-oxo-1,3-benzodiazol-1-yl]piperidine-2,6-dione], in assay [1], the “CDK2 HIBIT PQ Max (%)” value was 81% and the DC50 (usually the concentration giving 50% degradation) came to 1.7 nM. In assay [2], the Dmax (commonly the largest share of the target that was removed) turned out to be 9%. Moreover, the “CCNE1 HIBIT PQ Max (%)” value in assay [3] worked out at 26%.
Consider `CC(C)Oc1c(-c2cn[nH]c2)ncn2nc(Nc3ccc(S(=O)(=O)c4cccc(CC5CC(c6ccc(C(=O)NC7CCC(=O)NC7=O)cc6)C5)c4)cc3F)nc12` (racemic) [Compound 32, rac-N-[(3R)-2,6-dioxopiperidin-3-yl]-4-(3-{[3-(3-fluoro-4-{[8-isopropoxy-7-(1H-pyrazol-4-yl)-[1,2,4]triazolo[1,5-c]pyrimidin-2-yl]amino}benzenesulfonyl)phenyl]methyl}cyclobutyl)benzamide], for which, in assay [1], the “CDK2 HIBIT PQ Max (%)” value stood at 89% and the DC50 turned out to be 78.1 nM. Moreover, in assay [2], the greatest degradation seen (Dmax) was 62% and half-maximal degradation (DC50) was put at 396 nM. Moreover, in assay [3], the “CCNE1 HIBIT PQ Max (%)” value is 62% and the DC50 was more than 3000 nM.
For `CC(C)Oc1c(-c2cn[nH]c2)ncn2nc(Nc3ccc(S(=O)(=O)c4cccc(CN5CCN(c6ccc7c(N8CCC(=O)NC8=O)nn(C)c7c6)CC5C)c4)cc3F)nc12` (racemic) [Compound 39], in assay [1], the “CDK2 HIBIT PQ Max (%)” value is listed as 96% and it took 3.3 nM to reach half-maximal degradation (DC50). In assay [2], this compound showed a Dmax of 60% and a DC50 of 58.5 nM. Also, in assay [3], the “CCNE1 HIBIT PQ Max (%)” value worked out at 67% and the DC50 came out at 14.9 nM.
As for `CC(C)Oc1c(-c2cn[nH]c2)ncn2nc(Nc3ccc(S(=O)(=O)c4cccc(CN5CCN(c6ccc7c(N8CCC(=O)NC8=O)nn(C)c7c6)C(C)C5)c4)cc3F)nc12` (racemic) [Compound 41], in assay [1], the “CDK2 HIBIT PQ Max (%)” value is given as 94% and the DC50 was 3.9 nM. Besides, in assay [2], the Dmax stood at 57% and half-maximal degradation (DC50) was put at 28 nM. Besides, the “CCNE1 HIBIT PQ Max (%)” value in assay [3] came out at 41%.
On to `CC(C)Oc1c(-c2cn[nH]c2)ncn2nc(Nc3ccc(S(=O)(=O)c4cccc(CN5CCN(c6ccc7c(N8CCC(=O)NC8=O)nn(C)c7c6)CC5C(C)C)c4)cc3F)nc12` (racemic) [Compound 42, rac-(R)-1-(6-(4-(3-((3-fluoro-4-((8-isopropoxy-7-(1H-pyrazol-4-yl)-[1,2,4]triazolo[1,5-c]pyrimidin-2-yl)amino)phenyl)sulfonyl)benzyl)-3-isopropylpiperazin-1-yl)-1-methyl-1H-indazol-3-yl)dihydropyrimidine-2,4(1H,3H)-dione], for which, in assay [1], the “CDK2 HIBIT PQ Max (%)” value is recorded as 95% and it took 14.9 nM to reach half-maximal degradation (DC50). In assay [2], this compound had a Dmax of 61% and a half-maximal degradation concentration (DC50) of 306 nM. For the same compound, in assay [3], the “CCNE1 HIBIT PQ Max (%)” value was determined as 67% and the DC50 was found to be 78.9 nM.
Consider `CC(C)Oc1c(-c2cn[nH]c2)ncn2nc(Nc3ccc(S(=O)(=O)c4cccc(CN5CCN(c6ccc7c(N8CCC(=O)NC8=O)nn(C)c7c6)C(C(C)C)C5)c4)cc3F)nc12` (racemic) [Compound 43, rac-1-{6-[(2R)-4-{[3-(3-fluoro-4-{[8-isopropoxy-7-(1H-pyrazol-4-yl)-[1,2, 4]triazolo[1,5-c]pyrimidin-2-yl]amino}benzenesulfonyl)phenyl]methyl}-2-isopropylpiperazin-1-yl]-1-methylindazol-3-yl}-1,3-diazinane-2,4-dione], for which, in assay [1], the “CDK2 HIBIT PQ Max (%)” value turned out to be 94% and the DC50 was 14.5 nM. In assay [2], this compound yielded a Dmax of 75% and a DC50 of 307 nM. Moreover, in assay [3], the “CCNE1 HIBIT PQ Max (%)” value worked out at 76% and it took 96.5 nM to reach half-maximal degradation (DC50).

Source of the values: US20260062426A1, “CYCLIN DEPENDENT KINASE DEGRADERS AND METHODS OF USE THEREOF” (Differentiated Therapeutics Inc, priority 2023, published 2026).
